Data set [1] in a line: Determination of the octanol/water partition coefficients (logPow) by HPLC, OECD guideline 117. It is filed as physicochemical. To be noted: rp 18 hplc; HPLC method, RP 18 column, OECD 117; read-out: logPow (octanol/water partition coefficient).
The nature of data set [2]: Determination of the relative leaching rate from house paint (watering with tap water, HPLC of methanol extracts). It is filed as physicochemical. The text has this: First, 128 parts by weight (PW) of water were initially charged. 11 PW of a 10% strength by weight solution of Calgon N (sodium triphosphate) were subsequently stirred into the water. Thereafter, 2 PW of Tylose MHB 6000 (from Hoechst AG), 3 PW of Additol XW 330 (from Hoechst AG), 4 PW of Agitan 260 (from Munzing-Chemie, Heilbronn), 226 PW of titanium dioxide (for example from Kronos 2065), 375 PW of MOWILITH® DM 771 (about 50%) (from. HOECHST), 84 PW of Omyacarb 5 (from Omya), 84 PW of Micro Mica W1, 38 PW of Micro Talc AT 1 and 20 PW of China Clay D were added and homogenized. 11 PW of white spirit, 8 PW of butyl diglycol acetate and 4 PW of MERGAL® K 9 N (Riedel de Haen) were stirred into the resulting mixture. The pH of the resulting house paint was 8.8.
The preservatives listed in Table 2 were homogeneously dispersed into the resulting house paint.
The resulting paint sample was in each case drawn out to a film of approximately 150 g/m^2 on paper, using a knife. The paint sample prepared in this manner was subsequently dried at a temperature of 30° C. for 72 hours.
Test samples having a diameter of 5.5 cm were punched out from the paint sample. To simulate leaching by rainwater, these paint-coated test samples were watered with tap water (46.7 1/day/m^2 of paint). Test samples were taken in each case after 24 hours and air-dried for 72 hours.
To determine the microbicide concentration, in each case one specimen was extracted in methanol. The methanol extracts were analysed by HPLC. […]
column: RP-phenyl (Hypersil 5 μ) mobile phase: gradient water/acetonitrile
UV-Detector: 220 nm and 200 nm
Since in each analysis, the substances listed in Table 3 were measured as the area under the HPLC signal, it is possible to relate the leaching rates directly to the known active compounds OITZ and Mctt.

For the molecule `CCCCCCCCCCn1sccc1=O` [DITZ, 2-n-decyl-isothiazolin-3-one], the chromatographic logP in data set [1] was determined as 4.14.
As to `CSc1nc(NC2CC2)nc(NC(C)(C)C)n1` [Mctt, 2-methylthio-4-cyclopropylamino-6-t-butylamino-1,3,5-triazine], the HPLC area is 955.2 arbitrary units in data set [2] (0 h watering); 787.1 arbitrary units in data set [2] (24 h watering); 800.2 arbitrary units in data set [2] (48 h watering); 677.6 arbitrary units in data set [2] (72 h watering); 547.4 arbitrary units in data set [2] (96 h watering). For the same molecule, the HPLC relative area in data set [2] (0 h watering) amounted to 1; in data set [2] (24 h watering), 0.824; in data set [2] (48 h watering), 0.837; in data set [2] (72 h watering), 0.708; in data set [2] (96 h watering), 0.572.
`CCCCCCCCCn1sccc1=O` [NITZ, 2-n-nonylisothiazolin-3-one]: in data set [1], the chromatographic logP turned out to be 3.51.
For the molecule `CCCCCCCCn1sccc1=O` [OITZ, 2-n-octylisothiazolin-3-one], the chromatographic logP in data set [1] was found to be 2.89.
Same read-out and setting: the figure for `CCCCCCCCCCCn1sccc1=O` [compound 11, 2-n-undecylisothiazolin-3-one] is 4.76; for `CCCCCCCCCCCCn1sccc1=O` [dodecyl-ITZ, 2-n-dodecylisothiazolin-3-one] it is 5.36.

The record behind these values is US6228382A, “Microbiocidal mixtures” (ETC C.V., priority 1996, dated 2001).
